Molecular target: T1, FGFR1 V561M (Homo sapiens, UniProt P11362, V561M)
T1 construct: purchased Thermo Fisher Scientific (Life Technologies) SelectScreen
Assay: SelectScreen LanthaScreen
Format: binding
Settings: read-out: % displacement
Method in brief: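 SelectScreen broad panel; activity (Z'LYTE, Adapta) plus binding formats. ATP: Km app for CSF1R Z'LYTE; 10 for CAMK1 Adapta. Readout = % per kinase.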

T1 sequence (P11362 22-822 V561M): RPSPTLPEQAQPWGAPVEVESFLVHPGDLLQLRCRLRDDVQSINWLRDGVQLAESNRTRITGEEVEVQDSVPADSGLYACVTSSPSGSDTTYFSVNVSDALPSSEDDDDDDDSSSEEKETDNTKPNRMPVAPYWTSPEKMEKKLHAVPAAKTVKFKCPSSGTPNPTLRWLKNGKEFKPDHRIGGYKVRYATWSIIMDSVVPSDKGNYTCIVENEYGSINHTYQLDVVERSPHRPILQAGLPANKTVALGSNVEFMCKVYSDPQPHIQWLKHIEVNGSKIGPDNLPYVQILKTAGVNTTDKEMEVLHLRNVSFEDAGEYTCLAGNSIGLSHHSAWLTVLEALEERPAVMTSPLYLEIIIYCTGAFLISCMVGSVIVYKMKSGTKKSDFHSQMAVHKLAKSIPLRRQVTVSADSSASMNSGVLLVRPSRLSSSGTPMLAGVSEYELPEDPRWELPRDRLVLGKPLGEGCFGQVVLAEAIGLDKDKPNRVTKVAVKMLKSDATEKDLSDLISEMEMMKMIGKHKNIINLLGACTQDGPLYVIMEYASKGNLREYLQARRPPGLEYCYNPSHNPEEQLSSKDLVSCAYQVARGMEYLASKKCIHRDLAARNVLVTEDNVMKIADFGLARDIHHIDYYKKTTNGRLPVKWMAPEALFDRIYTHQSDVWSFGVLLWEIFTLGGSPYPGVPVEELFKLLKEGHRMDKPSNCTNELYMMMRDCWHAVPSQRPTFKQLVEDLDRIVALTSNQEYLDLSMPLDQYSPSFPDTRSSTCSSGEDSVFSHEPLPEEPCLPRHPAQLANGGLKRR

In the case of `CN(C(=O)CN1CCOCC1)c1ccc2sc3c(-c4cccc5c(=O)cc(N6CC7CCC(C6)O7)oc45)cccc3c2c1` [NU5455], the inhibition at 1 µM is reported as 5.1%.
